Our source for the Kd values is publication PMC9852063 (Molecular carcinogenesis, 2022).

A word on the Kd: it is the constant that tells how readily two partners part at equilibrium.

The target in the test is T1, Doublecortin like kinase 1 (DCLK1) (Homo sapiens, UniProt O15075).
T1 sequence (O15075 1-740): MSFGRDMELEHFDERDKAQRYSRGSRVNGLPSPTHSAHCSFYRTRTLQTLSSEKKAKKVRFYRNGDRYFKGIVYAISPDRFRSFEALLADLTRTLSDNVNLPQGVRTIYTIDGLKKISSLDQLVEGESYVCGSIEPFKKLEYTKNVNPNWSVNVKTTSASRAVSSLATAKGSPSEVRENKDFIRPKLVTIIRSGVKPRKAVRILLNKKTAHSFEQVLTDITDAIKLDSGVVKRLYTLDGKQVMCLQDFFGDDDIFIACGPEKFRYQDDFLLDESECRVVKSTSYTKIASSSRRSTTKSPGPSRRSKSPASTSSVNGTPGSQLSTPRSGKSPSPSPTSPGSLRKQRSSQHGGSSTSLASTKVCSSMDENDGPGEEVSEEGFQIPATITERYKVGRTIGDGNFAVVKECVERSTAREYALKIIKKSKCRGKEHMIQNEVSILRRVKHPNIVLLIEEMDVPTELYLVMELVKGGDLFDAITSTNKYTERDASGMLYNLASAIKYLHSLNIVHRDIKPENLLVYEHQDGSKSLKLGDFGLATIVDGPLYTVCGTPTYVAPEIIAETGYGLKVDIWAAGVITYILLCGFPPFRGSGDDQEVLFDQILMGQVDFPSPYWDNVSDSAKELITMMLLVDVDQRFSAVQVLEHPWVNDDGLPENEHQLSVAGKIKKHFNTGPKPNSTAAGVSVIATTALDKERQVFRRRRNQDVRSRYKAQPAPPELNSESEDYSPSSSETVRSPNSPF
The experiment in a line: SPR with immobilized recombinant DCLK1. It counts as binding.

The structures appear in SMILES notation.

Turning to `O=C1C(=Cc2ccc(F)cc2F)CNCC1=Cc1ccc(F)cc1F` [DiFiD, 3,5-bis (2,4-difluorobenzylidene)-4-piperidone], the equilibrium dissociation constant (Kd) was 0.071 µM.
